Assays:
[1] = test system: fall panicum; assay: Field trial in corn at V3, broadcast treatment on 2-4 inch weeds, % weed control; format: in vivo, Panicum dichotomiflorum
Source text: (§1) The herbicides tested were glufosinate, glyphosate, and mesotrione. Each herbicide was combined at the specified rate with either deionized water or SymMAX™ supramolecular host water mixture commercially available from Shotwell Hydrogenics at 15 gallons per acre (GPA). Specified rates for glufosinate were 22 ounces per acre, 11 ounces per acre, and 5.5 ounces per acre. Specified rates for glyphosate were 22 ounces per acre, 11 ounces per acre, and 5.5 ounces per acre. Specified rates for mesotrione were 3 ounces per acre, 2 ounces per acre, and 1 ounce per acre.
(§2) This example was conducted as a 4 replicate, RCBD (randomized control block design) in Quitman, GA. An untreated control was used as a standard that provided no weed control and no phytotoxicity. All treatments were compared to the untreated control. Counted dead weeds and living weeds were used to determine % weed control. The untreated control was also used to determine % crop phytotoxicity for the crop. Typical indications of phytotoxicity include chlorosis, stunting, epinasty, and/or leaf burn.
(§3) The trial ran for 14 days with weekly data assessments taken on % crop phytotoxicity and % weed control of four key species: palmer amaranth (Amaranthus palmeri), ivyleaf morning glory (Ipomoea hederacea), fall panicum (Panicum dichotomiflorum) and large crabgrass (Digitaria sanguinalis The test field was over seeded with weed seed obtained from the University of Georgia prior to corn planting. Treatments were applied as a broadcast treatment when corn had reached physiological growth stage V3 and weeds were in the 2-4″ size range. Treatments were applied at various rates ranging from about 1 ounce per acre to about 22 ounces per acre. Tables 9-10 show the % weed control when the weeds are treated with glufosinate. Tables 11-12 show the % weed control when the weeds are treated with glyphosphate. Tables 13-14 show the % weed control when the weeds are treated with mesotrione.

[2] = test system: ivyleaf morning glory; assay: as above; format: in vivo, Ipomoea hederacea
Source text: as §1, §2, §3

[3] = test system: palmer amaranth; assay: as above; format: in vivo, Amaranthus palmeri
Source text: as §1, §2, §3

[4] = test system: large crabgrass; assay: as above; format: in vivo, Digitaria sanguinalis
Source text: as §1, §2, §3

[5] = test system: large crabgrass; assay: Field trial in corn, herbicide applied 3 days after planting, % weed control; format: in vivo, Digitaria sanguinalis
Method: (§4) The herbicides tested were acetochlor and s-metolachlor. Each herbicide was combined at the specified rate with either deionized water or SymMAX™ supramolecular host chemistry that is commercially available from Shotwell Hydrogenics at 15 gallons per acre (GPA). Specified rates for acetochlor were 0.5 parts per acre, 1 part per acre, and 2 parts per acre. […]
as §2
(§5) The trial ran for 28 days with weekly data assessments taken on % crop phytotoxicity and % weed control of three key species: palmer amaranth (Amaranthus palmeri), fall panicum (Panicum dichotomiflorum) and large crabgrass (Digitaria sanguinalis). The test field was over seeded with weed seed obtained from the University of Georgia prior to corn planting. Treatments were applied 3 days after planting as a broadcast application at various rates ranging from about 0.5 parts per acre to about 2 parts per acre. Tables 1-4 show the % weed control when the weeds are treated with acetachlor. Tables 4-8 show the % weed control when the weeds are treated with s-metolachlor.

[6] = test system: palmer amaranth; assay: as above; format: in vivo, Amaranthus palmeri
Method: as §4, §2, §5

[7] = test system: fall panicum; assay: as above; format: in vivo, Panicum dichotomiflorum
Method: as §4, §2, §5

[8] = 7 days, glyphosate 5.5 ounces/acre
[9] = 7 days, glyphosate 11 ounces/acre
[10] = 7 days, glyphosate 22 ounces/acre
[11] = 14 days, glyphosate 5.5 ounces/acre
[12] = 14 days, glyphosate 11 ounces/acre
[13] = 14 days, glyphosate 22 ounces/acre
[14] = 7 days, mesotrione 1 ounce/acre
[15] = 7 days, mesotrione 2 ounces/acre
[16] = 7 days, mesotrione 3 ounces/acre
[17] = 14 days, mesotrione 1 ounce/acre
[18] = 14 days, mesotrione 2 ounces/acre
[19] = 14 days, mesotrione 3 ounces/acre
[20] = 7 days, s-metolachlor 0.75 part/acre
[21] = 7 days, s-metolachlor 1 part/acre
[22] = 7 days, s-metolachlor 1.5 parts/acre
[23] = 14 days, s-metolachlor 0.75 part/acre
[24] = 14 days, s-metolachlor 1 part/acre
[25] = 14 days, s-metolachlor 1.5 parts/acre
[26] = 21 days, s-metolachlor 0.75 part/acre
[27] = 21 days, s-metolachlor 1 part/acre
[28] = 21 days, s-metolachlor 1.5 parts/acre
[29] = 28 days, s-metolachlor 0.75 part/acre
[30] = 28 days, s-metolachlor 1 part/acre
[31] = 28 days, s-metolachlor 1.5 parts/acre

SMILES: O=C(O)CNCP(=O)(O)O [Glyphosate, glyphosate]
- % WEED CONTROL FOR FALL PANICUM [1, 8]: 85.8%
- % WEED CONTROL FOR FALL PANICUM [1, 9]: 97.5%
- % WEED CONTROL FOR FALL PANICUM [1, 10]: 98.8%
- % WEED CONTROL FOR FALL PANICUM [1, 11]: 81.8%
- % WEED CONTROL FOR FALL PANICUM [1, 12]: 95.4%
- % WEED CONTROL FOR FALL PANICUM [1, 13]: 98.4%
- % WEED CONTROL FOR IVYLEAF MORNINGLORY [2, 8]: 14.3%
- % WEED CONTROL FOR IVYLEAF MORNINGLORY [2, 9]: 13.5%
- % WEED CONTROL FOR IVYLEAF MORNINGLORY [2, 10]: 28.0%
- % WEED CONTROL FOR IVYLEAF MORNINGLORY [2, 11]: 9.7%
- % WEED CONTROL FOR IVYLEAF MORNINGLORY [2, 12]: 59.8%
- % WEED CONTROL FOR IVYLEAF MORNINGLORY [2, 13]: 76.3%
- % WEED CONTROL FOR PALMER AMARANTH [3, 8]: 63.8%
- % WEED CONTROL FOR PALMER AMARANTH [3, 9]: 76.4%
- % WEED CONTROL FOR PALMER AMARANTH [3, 10]: 81.9%
- % WEED CONTROL FOR PALMER AMARANTH [3, 11]: 58.3%
- % WEED CONTROL FOR PALMER AMARANTH [3, 12]: 75.8%
- % WEED CONTROL FOR PALMER AMARANTH [3, 13]: 83.5%
- % WEED CONTROL FOR LARGE CRABGRASS [4, 8]: 90.8%
- % WEED CONTROL FOR LARGE CRABGRASS [4, 9]: 97.8%
- % WEED CONTROL FOR LARGE CRABGRASS [4, 10]: 100.0%
- % WEED CONTROL FOR LARGE CRABGRASS [4, 11]: 89.0%
- % WEED CONTROL FOR LARGE CRABGRASS [4, 12]: 94.0%
- % WEED CONTROL FOR LARGE CRABGRASS [4, 13]: 98.0%

SMILES: CS(=O)(=O)c1ccc(C(=O)C2C(=O)CCCC2=O)c([N+](=O)[O-])c1 [Mesotrione, mesotrione]
- % WEED CONTROL FOR FALL PANICUM [1, 14]: 62.8%
- % WEED CONTROL FOR FALL PANICUM [1, 15]: 72.3%
- % WEED CONTROL FOR FALL PANICUM [1, 16]: 87.3%
- % WEED CONTROL FOR FALL PANICUM [1, 17]: 54.8%
- % WEED CONTROL FOR FALL PANICUM [1, 18]: 62.3%
- % WEED CONTROL FOR FALL PANICUM [1, 19]: 86.0%
- % WEED CONTROL FOR IVYLEAF MORNINGLORY [2, 14]: 64.5%
- % WEED CONTROL FOR IVYLEAF MORNINGLORY [2, 15]: 91.6%
- % WEED CONTROL FOR IVYLEAF MORNINGLORY [2, 16]: 94.2%
- % WEED CONTROL FOR IVYLEAF MORNINGLORY [2, 17]: 88.8%
- % WEED CONTROL FOR IVYLEAF MORNINGLORY [2, 18]: 96.5%
- % WEED CONTROL FOR IVYLEAF MORNINGLORY [2, 19]: 99.1%
- % WEED CONTROL FOR PALMER AMARANTH [3, 14]: 87.4%
- % WEED CONTROL FOR PALMER AMARANTH [3, 15]: 97.7%
- % WEED CONTROL FOR PALMER AMARANTH [3, 16]: 99.0%
- % WEED CONTROL FOR PALMER AMARANTH [3, 17]: 95.1%
- % WEED CONTROL FOR PALMER AMARANTH [3, 18]: 97.0%
- % WEED CONTROL FOR PALMER AMARANTH [3, 19]: 99.3%
- % WEED CONTROL FOR LARGE CRABGRASS [4, 14]: 62.3%
- % WEED CONTROL FOR LARGE CRABGRASS [4, 15]: 81.5%
- % WEED CONTROL FOR LARGE CRABGRASS [4, 16]: 91.5%
- % WEED CONTROL FOR LARGE CRABGRASS [4, 17]: 63.0%
- % WEED CONTROL FOR LARGE CRABGRASS [4, 18]: 78.8%
- % WEED CONTROL FOR LARGE CRABGRASS [4, 19]: 88.5%

SMILES: CCc1cccc(C)c1N(C(=O)CCl)[C@@H](C)COC [S-metolachlor, s-metolachlor]
- % WEED CONTROL FOR LARGE CRABGRASS [5, 20]: 92.0%
- % WEED CONTROL FOR LARGE CRABGRASS [5, 21]: 99.0%
- % WEED CONTROL FOR LARGE CRABGRASS [5, 22]: 100.0%
- % WEED CONTROL FOR LARGE CRABGRASS [5, 23]: 82.8%
- % WEED CONTROL FOR LARGE CRABGRASS [5, 24]: 89.0%
- % WEED CONTROL FOR LARGE CRABGRASS [5, 25]: 98.0%
- % WEED CONTROL FOR LARGE CRABGRASS [5, 26]: 91.3%
- % WEED CONTROL FOR LARGE CRABGRASS [5, 27]: 84.3%
- % WEED CONTROL FOR LARGE CRABGRASS [5, 28]: 93.0%
- % WEED CONTROL FOR LARGE CRABGRASS [5, 29]: 90.0%
- % WEED CONTROL FOR LARGE CRABGRASS [5, 30]: 99.7%
- % WEED CONTROL FOR LARGE CRABGRASS [5, 31]: 100.0%
- % WEED CONTROL FOR PALMER AMARANTH [6, 20]: 96.0%
- % WEED CONTROL FOR PALMER AMARANTH [6, 21]: 99.3%
- % WEED CONTROL FOR PALMER AMARANTH [6, 22]: 100.0%
- % WEED CONTROL FOR PALMER AMARANTH [6, 23]: 94.3%
- % WEED CONTROL FOR PALMER AMARANTH [6, 24]: 98.0%
- % WEED CONTROL FOR PALMER AMARANTH [6, 25]: 100.0%
- % WEED CONTROL FOR PALMER AMARANTH [6, 26]: 96.0%
- % WEED CONTROL FOR PALMER AMARANTH [6, 27]: 99.0%
- % WEED CONTROL FOR PALMER AMARANTH [6, 28]: 100.0%
- % WEED CONTROL FOR PALMER AMARANTH [6, 29]: 98.8%
- % WEED CONTROL FOR PALMER AMARANTH [6, 30]: 100.0%
- % WEED CONTROL FOR PALMER AMARANTH [6, 31]: 100.0%
- % WEED CONTROL FOR FALL PANICUM [7, 20]: 91.3%
- % WEED CONTROL FOR FALL PANICUM [7, 21]: 97.5%
- % WEED CONTROL FOR FALL PANICUM [7, 22]: 100.0%
- % WEED CONTROL FOR FALL PANICUM [7, 23]: 83.5%
- % WEED CONTROL FOR FALL PANICUM [7, 24]: 91.8%
- % WEED CONTROL FOR FALL PANICUM [7, 25]: 97.8%
- % WEED CONTROL FOR FALL PANICUM [7, 26]: 90.1%
- % WEED CONTROL FOR FALL PANICUM [7, 27]: 89.4%
- % WEED CONTROL FOR FALL PANICUM [7, 28]: 98.9%
- % WEED CONTROL FOR FALL PANICUM [7, 29]: 88.3%
- % WEED CONTROL FOR FALL PANICUM [7, 30]: 97.3%
- % WEED CONTROL FOR FALL PANICUM [7, 31]: 100.0%
